Results: the supplement of paper PMC9663587

Columns and labels:
Assay in all cases: GR value, 72 h; higher = faster growth (1 = untreated, <0 = killing);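 note: breast cancer and non-malignant breast epithelial lines, nine half-log doses, viable cells counted by Hoechst and LIVE/DEAD dye imaging versus time-zero plates and DMSO controls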
[1] = compound: COc1ccc2c(c1)[C@]1(C[C@H]1c1ccc3c(/C=C/c4ccc(CN5C[C@@H](C)O[C@@H](C)C5)cc4)n[nH]c3c1)C(=O)N2
[2] = compound: CN(C)CC[C@H](CSc1ccccc1)Nc1ccc(S(=O)(=O)NC(=O)c2ccc(N3CCN(Cc4ccccc4-c4ccc(Cl)cc4)CC3)cc2)cc1[N+](=O)[O-] [ABT-737]
[3] = compound: Cc1nc(-c2cn3c(n2)-c2ccc(-c4cnn(C(C)(C)C(N)=O)c4)cc2OCC3)n(C(C)C)n1 [Taselisib/GDC0032]
[4] = compound: CO[C@H]1C[C@@H]2CC[C@@H](C)[C@@](O)(O2)C(=O)C(=O)N2CCCC[C@H]2C(=O)O[C@H]([C@H](C)C[C@@H]2CC[C@@H](OCCO)[C@H](OC)C2)CC(=O)[C@H](C)/C=C(\C)[C@@H](O)[C@@H](OC)C(=O)[C@H](C)C[C@H](C)/C=C/C=C/C=C/1C [Everolimus]
[5] = compound: O=C(CCCCCCC(=O)Nc1ccccc1)NO [Vorinostat]
[6] = compound: CN(C)C/C=C/C(=O)NC1=CC=C(C=C1)C(=O)NC2=CC=CC(=C2)NC3=NC=NC(=C3)C4=CNC5=CC=CC=C54 [THZ-P1-2]
[7] = compound: CCC1=CN=CN=C1N2CCN(CC2)CC3=NC4=C(N3)C=C(C=C4)C(F)(F)F
[8] = compound: COc1cccc(OCCCN)c1-c1cc(Nc2cnc(C#N)cn2)n[nH]1
[9] = compound: CC(C)n1nc(-c2ccc3oc(N)nc3c2)c2c(N)ncnc21 [INK128/MLN0128]
[10] = compound: Nc1cc(C(F)(F)F)c(-c2cc(N3CCOCC3)nc(N3CCOCC3)n2)cn1 [Buparlisib/NVP-BKM120]
[11] = compound: CC(=O)Nc1cccc(-n2c(=O)n(C3CC3)c(=O)c3c(Nc4ccc(I)cc4F)n(C)c(=O)c(C)c32)c1

AU565
GR value ([1]; 0.0001 µM): 0.968 GR | GR value ([1]; 0.0003162 µM): 0.96 GR | GR value ([1]; 0.001 µM): 0.874 GR | GR value ([1]; 0.003162 µM): 0.602 GR | GR value ([1]; 0.01 µM): -0.128 GR | GR value ([1]; 0.03162 µM): -0.147 GR | GR value ([1]; 0.1 µM): -0.161 GR | GR value ([1]; 0.3162 µM): -0.168 GR | GR value ([1]; 1 µM): -0.109 GR | GR value ([2]; 0.001 µM): 0.926 GR | GR value ([2]; 0.003162 µM): 1.05 GR | GR value ([2]; 0.01 µM): 1.03 GR | GR value ([2]; 0.03162 µM): 1.04 GR | GR value ([2]; 0.1 µM): 1.04 GR | GR value ([2]; 0.3162 µM): 1.02 GR | GR value ([2]; 1 µM): 0.957 GR | GR value ([2]; 3.162 µM): 0.86 GR | GR value ([2]; 10 µM): 0.279 GR | GR value ([3]; 0.001 µM): 0.728 GR | GR value ([3]; 0.003162 µM): 0.58 GR | GR value ([3]; 0.01 µM): 0.208 GR | GR value ([3]; 0.03162 µM): -0.0424 GR | GR value ([3]; 0.1 µM): -0.111 GR | GR value ([3]; 0.3162 µM): -0.171 GR | GR value ([3]; 1 µM): -0.209 GR | GR value ([3]; 3.162 µM): -0.225 GR | GR value ([3]; 10 µM): -0.538 GR | GR value ([4]; 0.001 µM): 0.523 GR | GR value ([4]; 0.003162 µM): 0.451 GR | GR value ([4]; 0.01 µM): 0.429 GR | GR value ([4]; 0.03162 µM): 0.494 GR | GR value ([4]; 0.1 µM): 0.396 GR | GR value ([4]; 0.3162 µM): 0.509 GR | GR value ([4]; 1 µM): 0.408 GR | GR value ([4]; 3.162 µM): 0.454 GR | GR value ([4]; 10 µM): 0.398 GR | GR value ([5]; 0.001 µM): 0.865 GR | GR value ([5]; 0.003162 µM): 0.936 GR | GR value ([5]; 0.01 µM): 1.02 GR | GR value ([5]; 0.03162 µM): 0.999 GR | GR value ([5]; 0.1 µM): 1.06 GR | GR value ([5]; 0.3162 µM): 0.941 GR | GR value ([5]; 1 µM): 0.551 GR | GR value ([5]; 3.162 µM): -0.345 GR | GR value ([5]; 10 µM): -0.448 GR | GR value ([6]; 0.01 µM): 0.964 GR | GR value ([6]; 0.03162 µM): 1.02 GR | GR value ([6]; 0.1 µM): 0.979 GR | GR value ([6]; 0.3162 µM): 0.842 GR | GR value ([6]; 1 µM): 0.865 GR | GR value ([6]; 3.162 µM): 0.881 GR | GR value ([6]; 10 µM): -0.648 GR | GR value ([7]; 0.001 µM): 1.03 GR | GR value ([7]; 0.003162 µM): 1.08 GR | GR value ([7]; 0.01 µM): 1.01 GR | GR value ([7]; 0.03162 µM): 1.09 GR | GR value ([7]; 0.1 µM): 0.997 GR | GR value ([7]; 0.3162 µM): 0.985 GR | GR value ([7]; 1 µM): 0.932 GR | GR value ([7]; 3.162 µM): 0.808 GR | GR value ([7]; 10 µM): 0.486 GR | GR value ([8]; 10 pM): 0.889 GR | GR value ([8]; 31.6 pM): 0.97 GR | GR value ([8]; 0.0001 µM): 1.1 GR | GR value ([8]; 0.0003162 µM): 1.09 GR | GR value ([8]; 0.001 µM): 0.219 GR | GR value ([8]; 0.003162 µM): 0.112 GR | GR value ([8]; 0.01 µM): 0.0322 GR | GR value ([8]; 0.03162 µM): 0.0412 GR | GR value ([8]; 0.1 µM): 0.077 GR | GR value ([9]; 0.0003162 µM): 0.889 GR | GR value ([9]; 0.001 µM): 0.931 GR | GR value ([9]; 0.003162 µM): 0.62 GR | GR value ([9]; 0.01 µM): 0.249 GR | GR value ([9]; 0.03162 µM): 0.0411 GR | GR value ([9]; 0.1 µM): -0.0783 GR | GR value ([9]; 0.3162 µM): -0.0838 GR | GR value ([9]; 1 µM): -0.184 GR | GR value ([9]; 3.162 µM): -0.48 GR | GR value ([10]; 0.001 µM): 1.05 GR | GR value ([10]; 0.003162 µM): 1.07 GR | GR value ([10]; 0.01 µM): 0.976 GR | GR value ([10]; 0.03162 µM): 0.845 GR | GR value ([10]; 0.1 µM): 0.505 GR | GR value ([10]; 0.3162 µM): 0.186 GR | GR value ([10]; 1 µM): -0.365 GR | GR value ([10]; 3.162 µM): -0.533 GR | GR value ([10]; 10 µM): -0.494 GR | GR value ([11]; 0.0001 µM): 1.05 GR | GR value ([11]; 0.0003162 µM): 0.96 GR | GR value ([11]; 0.001 µM): 1.08 GR | GR value ([11]; 0.003162 µM): 1.05 GR | GR value ([11]; 0.01 µM): 1.02 GR | GR value ([11]; 0.03162 µM): 0.968 GR | GR value ([11]; 0.1 µM): 1.08 GR | GR value ([11]; 0.3162 µM): 1.02 GR | GR value ([11]; 1 µM): 1.01 GR
